We go through 25 molecules from PubChem BioAssay (NCI).

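96-well plates; 48 h exposure; 5 concentrations. Endpoints by linear interpolation between flanking doses. Not reached: highest tested concentration assigned. Definition used: TGI = concentration required for complete inhibition of growth.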

What all share (experiment): NCI anticancer screen, dose series, 48 h
Test [1] relates to U251 CNS.
For test [2], the system named is RPMI-8226 leukemia.
Test [3] concerns OVCAR-5 ovarian.
Test [4] deals with SK-MEL-28 melanoma.
The subject of test [5] is MDA-MB-231 breast.
Test [6] relates to SF-539 CNS.
Test [7] relates to EKVX NSCLC.
Test [8] has as its system NCI-H226 lung.
Test [9] relates to SK-MEL-2 melanoma.
Test [10] relates to MDA-MB-435.
Test [11] concerns SNB-75 CNS.

On to `CCN(CC)CCC1CCCCN1CC(=O)N1c2cc(Cl)ccc2NC(=O)CC1C` (centres undefined), for which the TGI in test [1], in test [2], in test [3], in test [4], in [5] and in test [6] was over 100 µM throughout. The TGI in test [7], in test [8], in [9] and in [10] was over 100 µM each time.

Regarding `COc1cccc(CCNc2c(C#N)c3n(c4ccccc4[n+]3C)c3ncccc23)c1`, the TGI in [1] was over 21.3 µM; in [2], 6.59 µM; in [3], 34 µM; in [4], 44.1 µM; in test [5] it was 6.89 µM; in [6], 3.55 µM. For the same molecule, the TGI was found to be 36.5 µM in test [7]; 45.9 µM in [8]; 43.3 µM in test [9]; 45.6 µM in test [10]; 12.8 µM in test [11].

`CCOS(=O)(=O)c1ccc(-c2c3nc(c(-c4ccc(S(=O)(=O)OCC)cc4)c4ccc([nH]4)c(-c4ccc(S(=O)(=O)OCC)cc4)c4nc(c(-c5ccc(S(=O)(=O)OCC)cc5)c5ccc2[nH]5)C=C4)C=C3)cc1`: the TGI in test [1], in [2], in [3], in test [5], in test [6] and in test [7] was over 31.6 µM each time. Further, the TGI in test [8] was over 100 µM; in [9] it was over 31.6 µM; in [10], over 31.6 µM.

Turning to `CSc1nc(NCc2ccccc2)c2cnn(COCCO)c2n1`, the TGI was over 100 µM in [1]; over 100 µM in test [2]; over 100 µM in test [3]; over 100 µM in test [5]; over 100 µM in test [6]; 63.5 µM in test [7]. In addition, the TGI in [8] was over 100 µM; in test [9], over 100 µM; in test [10], 80.5 µM; in [11], 53.6 µM.

In the case of `COc1ccc(C2=NNC(=O)c3ccccc3N2c2nc(-c3cccs3)nc3cc(OC)c(OC)cc23)cc1`, the TGI in test [1] is 33.3 µM; in test [2] it was over 100 µM; in [3], over 100 µM; in test [4], 5 µM; in test [5], 13.5 µM; in test [6], 8.56 µM. The TGI was over 100 µM in [7]; 20.6 µM in [8]; 44.2 µM in test [9]; 13.6 µM in [10]; 14.1 µM in [11].

`Cc1ccnc(Nc2[nH]c(C(=O)c3ccc(Cl)cc3)c(N)c2C(=S)Nc2ccccc2)c1`: the TGI was determined as 33.2 µM in [1]; 31.3 µM in [2]; 55.3 µM in test [3]; 35.9 µM in test [4]; 31.6 µM in test [5]; 26.6 µM in test [6]. The TGI in test [7] stood at 44.6 µM; in test [8], 45.6 µM; in test [9], 21.5 µM; in test [10], 35.3 µM; in test [11], 39.7 µM.

Turning to `CN1C(=O)C23CCCC2CC1(c1ccccc1)S3` (centres undefined), the TGI in test [1], in test [2], in test [3], in [4], in [5] and in test [6] was over 100 µM throughout. Further, the TGI in [7], in test [8], in [9] and in test [10] was over 100 µM in each case.

For `C(=C/c1nnnn1-c1ccccc1)/Nc1ccccc1`, the TGI is over 100 µM in [1]; over 100 µM in test [2]; over 100 µM in test [3]; over 100 µM in test [4]; over 100 µM in test [5]; 64.7 µM in test [6]. For the same molecule, the TGI in test [7] is over 100 µM; in test [8], 61.6 µM; in [9], 20.6 µM; in test [10], 92.9 µM; in test [11] it was over 100 µM.

With `O=C1CC(c2ccccc2)n2c(nc3ccccc32)N1` (centres undefined), the TGI in test [1], in test [2], in [3], in test [5], in test [6] and in [7] was over 100 µM in each case. For the same molecule, the TGI is over 100 µM in test [8], 47.9 µM in test [9] and over 100 µM in test [10].

For the molecule `O=C(CC(C(=O)c1cccs1)c1ccsc1)c1ccc(Cl)s1` (centres undefined), the TGI in test [1], in test [2], in [3], in [4], in test [5] and in test [6] was over 100 µM in each case. Further, the TGI in [7], in [8], in test [9], in test [10] and in test [11] was over 100 µM throughout.

In the case of `COc1ccc2c(c1)/c(=C/C#N)c1c3ccccc3[n+](C)n21`, the TGI in [1] was 40.8 µM; in test [2], 8.03 µM; in test [3] it was 42.8 µM; in [4], 14.3 µM; in test [5], 64.4 µM; in test [6] it was 11.8 µM. Moreover, the TGI in test [7] is 16.5 µM; in test [8], 21.4 µM; in test [9], 36.1 µM; in [10], 19.3 µM; in [11], 9.21 µM.

As to `CSc1ccc2c(c1)c(CCN)c(C)n2Cc1ccccc1Cl`, the TGI is 3.06 µM in test [1]; 3.26 µM in test [2]; 3.78 µM in [3]; 3.22 µM in test [4]; 3.66 µM in test [5]; 2.26 µM in test [6]. Moreover, the TGI in [7] amounted to 3.12 µM; in [8], 4.1 µM; in test [9], 3.26 µM; in test [10], 3.08 µM; in test [11], 3.04 µM.

For `O=c1c2c3c(sc2nc2n1NC=NN2)CCCC3`, the TGI in [1] turned out to be 35 µM; in test [2] it was 50.6 µM; in test [3] it was 35.9 µM; in [4], 36.1 µM; in test [5] it was 19.1 µM; in test [6], 36.9 µM. Also, the TGI in test [7] is 35.9 µM; in test [8], 49.8 µM; in [9], over 66.6 µM; in test [10] it was 26.4 µM; in [11], 59.1 µM.

Take `CC[C@]12C=CCN3CC[C@@]4(c5cc(Br)c(OC)cc5N(C)[C@H]4[C@@](O)(C(=O)NC(Cc4c[nH]c5ccccc45)C(=O)OC)[C@@H]1O)[C@@H]32` (some centres undefined): the TGI in test [1] was over 100 µM; in [2] it was 46.3 µM; in test [3], over 100 µM; in [4], over 100 µM; in test [5], over 100 µM; in [6], over 100 µM. Further, the TGI in [7], in test [8], in [9], in test [10] and in test [11] was over 100 µM in each case.

With `COc1ccccc1C(=O)OCC1CCCN2CCCCC12` (centres undefined), the TGI in test [1] was 73.1 µM; in test [2], over 100 µM; in test [4], 65.7 µM; in [5] it was 61.6 µM; in test [6] it was over 100 µM; in test [7], over 100 µM. Also, the TGI in test [8] was over 100 µM; in test [9], over 100 µM; in test [10], over 100 µM; in test [11], 63.4 µM.

In the case of `COc1ccc(Nc2nc(N)c(C(=O)c3ccc(Cl)cc3)s2)cc1`, the TGI is 4.58 µM in test [1]; under 0.01 µM in [2]; 34.7 µM in [3]; over 100 µM in test [4]; 6.13 µM in test [5]; 0.18 µM in test [6]. Also, the TGI was over 100 µM in test [7]; 0.117 µM in test [8]; 38.6 µM in [9]; under 0.01 µM in [10]; 24.8 µM in test [11].

Turning to `COc1ccc(N2C(=O)/C(=C/c3ccc(N(CCC#N)CCC#N)cc3)N=C2c2ccccc2)cc1`, the TGI in test [1], in test [2], in test [3], in test [4], in test [5] and in test [6] was over 100 µM in each case. In addition, the TGI in test [7], in test [8], in test [9], in test [10] and in test [11] was over 100 µM each time.

Turning to `COC(=O)C12Oc3ccc(-c4ccc5c(c4O)C(O)=C4C(=O)CC(C)C(O)C4(C(=O)OC)O5)c(O)c3C(O)=C1C(=O)CC(C)C2O` (centres undefined), the TGI in test [1] amounted to 3.05 µM; in test [2], 0.31 µM; in test [3], 2.26 µM; in test [4], 0.741 µM; in test [5] it was 6.8 µM; in test [6] it was 1.35 µM. Besides, the TGI in test [7] is 1.49 µM; in test [8] it was 4.36 µM; in test [9], 1.02 µM; in test [10], 1.96 µM; in test [11] it was 2.92 µM.

Turning to `O=C1Nc2ccc(Br)cc2/C1=N/N1C(=O)C(=O)N(C2CCCCC2)C1=S`, the TGI in test [1] stood at 15.9 µM; in test [2], 19.9 µM; in test [3], 28.9 µM; in [4], 19 µM; in [5] it was 25.5 µM; in [6] it was 18.3 µM. In addition, the TGI worked out at 23.1 µM in test [7], 23.5 µM in [8], 4.34 µM in test [9] and 8.16 µM in test [10].

Consider `Nc1ccn(C2CCC(COP(=O)(O)OCC(O)COP(=O)(O)OCC3OC(n4cc(F)c(=O)[nH]c4=O)CC3O)O2)c(=O)n1` (centres undefined), for which the TGI in test [1], in test [2], in test [3], in test [4], in test [5] and in test [6] was over 100 µM in each case. Further, the TGI in test [7], in test [8], in test [9], in test [10] and in [11] was over 100 µM each time.

`CCOC(=O)N1CCC2(CC1)C[C@@](C(C)=O)(c1ccccc1)C(C)O2` (some centres undefined): the TGI in test [1], in [2], in test [3], in test [4], in test [5] and in [6] was over 100 µM each time. For the same molecule, the TGI in [7], in test [8], in test [9], in test [10] and in test [11] was over 100 µM throughout.

As for `COc1ccc(/C=C/C(=O)c2ccc(Br)cc2)cc1`, the TGI in test [1], in test [2], in test [3], in [4], in test [5] and in [6] was over 100 µM in each case. In addition, the TGI in [7], in [8], in [9], in test [10] and in test [11] was over 100 µM throughout.

For `C/C(=N\NC(N)=S)c1nc2ncccc2[nH]1`, the TGI in test [1], in test [2], in [3], in [4], in test [5] and in [6] was over 100 µM each time. Further, the TGI in test [7] was over 100 µM; in [8], over 91.4 µM; in test [9], over 100 µM; in test [10], over 100 µM; in [11], over 100 µM.

Consider `O=C(O)c1nn(-c2ccccc2)nc1-c1nn(-c2ccccc2)nc1C(=O)O`, for which the TGI in test [1], in test [2], in [3], in test [4], in [5] and in test [6] was over 100 µM in each case. In addition, the TGI in test [7], in test [8], in [9] and in test [10] was over 100 µM in each case.

With `CSc1ncc2c(n1)-c1ccccc1OC2`, the TGI in test [1], in [2], in [3], in [5], in test [6] and in test [7] was over 100 µM each time. The TGI in [8], in [9], in test [10] and in test [11] was over 100 µM each time.
